Data taken from patent publication US12097192B2 (Corcept Therapeutics Incorporated, priority 2019, dated 2024).

How the values were obtained:
[1] = test system: Cushing syndrome patients; conditions: patients treated with either mifepristone or metyrapone; cited from earlier work
[2] = test system: Cushing syndrome patients; experiment: Adverse events with other medical therapies for Cushing syndrome; assay type: in vivo, human; conditions: one patient treated previously with mifepristone

CC(C)(C(=O)c1cccnc1)c1cccnc1 [metyrapone]
drug induced hypokalemia [1]: commonly seen adverse event

CC#C[C@]1(O)CC[C@H]2[C@@H]3CCC4=CC(=O)CCC4=C3[C@@H](c3ccc(N(C)C)cc3)C[C@@]21C [mifepristone]
adverse event on previous therapy [2]: developed endometrial hypertrophy
